The record followed here is ChEMBL document CHEMBL1201862, “PubChem BioAssay data set” (2004).

Among the test systems are IGROV-1; LOX IMVI; MOLT-4; CAKI-1; K562; SK-MEL-2; ACHN; NCI-H522; NCI-H23; HCT-15; U-251; OVCAR-4; CCRF-CEM; SK-MEL-5; SK-MEL-28; RXF 393.
What all share (assay): growth of human tumour cells (NCI), 48 h

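The compound was tested at five concentrations on cells cultured in 96-well plates, with a 48-hour exposure period. At the GI50, growth is halved.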 Calls of active or inactive are those of the source. Cut-off read from the data, not from the text of the source: active = GI50 up to about 1.1 µM and inactive = higher. Bounds are passed on as bounds.

On to `CCN1CCC(O)(c2ccc(C)cc2)C(C(=O)c2ccc(C)cc2)C1` (stereo not given), for which the GI50 was > 42.9 µM (inactive) in the test with IGROV-1; 26.2 µM (inactive) in the test with LOX IMVI; 29 µM (inactive) in the test on MOLT-4; 17.2 µM (inactive) in the test on CAKI-1; 32.1 µM (inactive) in the test on K562; > 100 µM (inactive) in the test on SK-MEL-2. Besides, the GI50 is 17.5 µM (inactive) with ACHN; 1.94 µM (inactive) in the test with NCI-H522; > 40 µM (inactive) in the test on NCI-H23; 19.6 µM in the test on HCT-15; > 52.5 µM (inactive) with U-251; 21.5 µM (inactive) in the test with OVCAR-4. The GI50 is 18.3 µM (inactive) in the test with CCRF-CEM, > 42.3 µM (inactive) in the test with SK-MEL-5 and 23.9 µM (inactive) in the test on SK-MEL-28.
For `O=[N+]([O-])c1ccc(C2=NN(c3ccccc3)C[N+](c3ccc(Br)cc3)=N2)cc1`, the GI50 in the test on IGROV-1 was > 100 µM (inactive); in the test with MOLT-4, 44.3 µM (inactive); with RXF 393 it was 31.1 µM (inactive); with CAKI-1, > 100 µM (inactive); in the test with K562, 70.3 µM (inactive); in the test on SK-MEL-2 it was > 100 µM (inactive). In addition, the GI50 in the test on ACHN was > 100 µM (inactive); in the test on NCI-H522, 38.1 µM (inactive); in the test with NCI-H23, 70.6 µM (inactive); with HCT-15 it was above 100 µM; with U-251, 71.3 µM (inactive); in the test on OVCAR-4 it was > 100 µM (inactive). The GI50 in the test with SK-MEL-5 and with SK-MEL-28 was > 100 µM (inactive) in each case.
`CC1=C(C(=O)Nc2ccccc2C)C(c2ccc(N(C)C)cc2)C(C(=O)Nc2ccccc2C)=C(C)N1`: the GI50 in the test with IGROV-1 was > 100 µM (inactive); in the test with LOX IMVI, 56.8 µM (inactive); in the test on MOLT-4, 26.8 µM (inactive); with RXF 393, 35.5 µM (inactive); with K562, 26.2 µM (inactive); in the test on SK-MEL-2, 36.2 µM (inactive). Further, the GI50 in the test on ACHN was 67.6 µM (inactive); in the test on NCI-H522, 37.8 µM (inactive); in the test on NCI-H23, 58.7 µM (inactive); in the test on HCT-15, 67.9 µM; with U-251, > 100 µM (inactive); in the test with CCRF-CEM, 31.8 µM (inactive). For the same compound, the GI50 with SK-MEL-5 was 38.5 µM (inactive); with SK-MEL-28, 74.8 µM (inactive).
On to `CN(C)c1ccc2c(c1)C(=O)N(OS(=O)(=O)c1ccc([N+](=O)[O-])cc1)C2=O`, for which the GI50 with IGROV-1 was 19.7 µM (inactive); in the test with RXF 393 it was 13.9 µM (inactive); in the test with CAKI-1 it was 22.4 µM (inactive); in the test on K562, 31.6 µM (inactive); in the test with SK-MEL-2, 29.2 µM (inactive); in the test with ACHN it was 24.7 µM (inactive). The GI50 in the test with NCI-H522 was 15 µM (inactive); in the test with NCI-H23 it was 26.2 µM (inactive); in the test with HCT-15, 33.2 µM; in the test on U-251, 18.9 µM (inactive); in the test on OVCAR-4 it was 15.7 µM (inactive); in the test with CCRF-CEM, 18.7 µM (inactive). Further, the GI50 in the test on SK-MEL-5 was 41.1 µM (inactive); in the test with SK-MEL-28, 26.1 µM (inactive).
Turning to `Cn1c(NC(=O)NC23CC4CC(CC(C4)C2)C3)nc2ccccc21`, the GI50 in the test with IGROV-1 is > 100 µM (inactive); with LOX IMVI, > 100 µM (inactive); with MOLT-4, > 100 µM (inactive); in the test on RXF 393, 15.7 µM (inactive); in the test with CAKI-1 it was 48.6 µM (inactive); in the test on K562 it was > 100 µM (inactive). The GI50 is 71.3 µM (inactive) in the test with SK-MEL-2; 27.5 µM (inactive) in the test on ACHN; 78.7 µM (inactive) in the test with NCI-H522; > 100 µM (inactive) with NCI-H23; above 100 µM in the test on HCT-15; 48.8 µM (inactive) in the test on U-251. The GI50 was 4.22 µM (inactive) with OVCAR-4, 91 µM (inactive) in the test on SK-MEL-5 and 96.4 µM (inactive) with SK-MEL-28.
Turning to `COc1cc(Nc2cnc3cc(N)ccc3n2)cc(OC)c1OC`, the GI50 in the test with IGROV-1 was > 100 µM (inactive); with LOX IMVI, 65.5 µM (inactive); in the test on MOLT-4, 52.2 µM (inactive); in the test on CAKI-1, 83.4 µM (inactive); in the test with K562, 42.3 µM (inactive); in the test with SK-MEL-2, > 100 µM (inactive). The GI50 in the test with ACHN is > 100 µM (inactive); in the test on NCI-H522, 57.5 µM (inactive); in the test with NCI-H23, > 100 µM (inactive); with HCT-15, 55.2 µM; in the test with U-251, 65.2 µM (inactive); in the test with OVCAR-4, > 100 µM (inactive). Besides, the GI50 in the test with CCRF-CEM is 40.3 µM (inactive); with SK-MEL-5, 69 µM (inactive); in the test with SK-MEL-28 it was > 100 µM (inactive).
For `O=C(c1ccccc1)C(C(=O)c1ccccc1)C1(O)C(=O)c2ccccc2C1=O`, the GI50 in the test on IGROV-1 was 53.3 µM (inactive); in the test with LOX IMVI, 32.4 µM (inactive); with MOLT-4, 19.8 µM (inactive); with RXF 393 it was 0.253 µM (active); in the test on K562, 15.8 µM (inactive); in the test with SK-MEL-2 it was 6.17 µM (inactive). The GI50 in the test on ACHN was 31.9 µM (inactive); in the test with NCI-H522 it was 14.1 µM (inactive); in the test on NCI-H23, 28.6 µM (inactive); in the test on HCT-15, 44.2 µM; with U-251 it was 21 µM (inactive); in the test on CCRF-CEM, 20.4 µM (inactive). Further, the GI50 with SK-MEL-5 is > 10 µM (inactive); in the test with SK-MEL-28 it was 3.6 µM (inactive).
As to `Nc1nc(CCl)nc(Nc2ccccc2)n1`, the GI50 was 16.6 µM (inactive) in the test on IGROV-1; 15.8 µM (inactive) in the test on MOLT-4; 12.4 µM (inactive) in the test with CAKI-1; > 10 µM (inactive) with K562; 18.8 µM (inactive) with SK-MEL-2; 27 µM (inactive) in the test on ACHN. Besides, the GI50 was 1.75 µM (inactive) with NCI-H522; 18.6 µM (inactive) in the test on NCI-H23; 3.99 µM (inactive) in the test with U-251; 17.4 µM (inactive) in the test with OVCAR-4; 2.14 µM (inactive) in the test on CCRF-CEM; 17.5 µM (inactive) in the test with SK-MEL-5. Moreover, in the test on SK-MEL-28, the GI50 is 15.8 µM (inactive).
Consider `NC1=C(NC(=O)Cc2ccccc2F)C(=O)c2ccccc2C1=O`, for which the GI50 was 38.8 µM (inactive) in the test on IGROV-1; > 100 µM (inactive) in the test on MOLT-4; 34.4 µM (inactive) with RXF 393; > 100 µM (inactive) in the test on CAKI-1; > 100 µM (inactive) in the test on K562; 14.3 µM (inactive) in the test on SK-MEL-2. In addition, the GI50 in the test with ACHN is 76.9 µM (inactive); in the test on NCI-H522, 21.6 µM (inactive); in the test on NCI-H23 it was 40.6 µM (inactive); with HCT-15, 24.2 µM; in the test on U-251 it was 36.5 µM (inactive); in the test with OVCAR-4, 42 µM (inactive). The GI50 with CCRF-CEM and in the test with SK-MEL-28 was > 100 µM (inactive) each time.
`COc1cc(C=O)c(-c2c(C=O)ccc3c2OCO3)c(OC)c1OC`: the GI50 in the test with IGROV-1 is > 100 µM (inactive); with LOX IMVI, 54.6 µM (inactive); in the test on MOLT-4 it was 76.2 µM (inactive); in the test on CAKI-1, 31.9 µM (inactive); in the test with K562, 37.2 µM (inactive); in the test on SK-MEL-2, > 100 µM (inactive). The GI50 was > 100 µM (inactive) in the test with ACHN; 88.5 µM (inactive) with NCI-H522; > 100 µM (inactive) in the test on NCI-H23; 80.4 µM with HCT-15; 70.1 µM (inactive) with U-251; > 100 µM (inactive) with OVCAR-4. In addition, the GI50 is 33.8 µM (inactive) with CCRF-CEM, > 100 µM (inactive) in the test with SK-MEL-5 and 74.6 µM (inactive) with SK-MEL-28.
In the case of `CN/C=C(/c1ccc(OC)cc1)C(O)c1ccc(OC)c(OC)c1` (stereo not given), the GI50 in the test with IGROV-1, in the test on LOX IMVI, with MOLT-4, in the test on RXF 393, in the test with K562 and in the test with SK-MEL-2 was > 100 µM (inactive) in each case. The GI50 in the test with ACHN was > 100 µM (inactive); with NCI-H522, > 100 µM (inactive); in the test with NCI-H23, > 100 µM (inactive); with HCT-15, above 100 µM; with U-251, > 100 µM (inactive); in the test on OVCAR-4 it was > 100 µM (inactive). For the same compound, the GI50 with CCRF-CEM, with SK-MEL-5 and with SK-MEL-28 was > 100 µM (inactive) throughout.
Take `CCNC(=O)c1ccc(C)c(/N=N/N(C)C)c1`: the GI50 with IGROV-1 is > 100 µM (inactive); in the test on LOX IMVI, > 100 µM (inactive); in the test with CAKI-1, > 100 µM (inactive); in the test with SK-MEL-2 it was > 100 µM (inactive); in the test with ACHN, > 100 µM (inactive); in the test on NCI-H522, 81.1 µM (inactive). Moreover, the GI50 is > 100 µM (inactive) with NCI-H23; above 100 µM in the test on HCT-15; > 100 µM (inactive) in the test with U-251; > 100 µM (inactive) with OVCAR-4; > 100 µM (inactive) with SK-MEL-5; > 100 µM (inactive) with SK-MEL-28.
Consider `COc1ccc(NCc2cc(OC)c(OC)c(OC)c2)cc1`, for which the GI50 in the test on IGROV-1 is 0.631 µM (active); with LOX IMVI, 0.519 µM (active); with MOLT-4 it was 0.451 µM (active); in the test on RXF 393, 0.342 µM (active); with SK-MEL-2, 0.245 µM (active); in the test on NCI-H522, 0.372 µM (active). The GI50 was 0.513 µM (active) with NCI-H23; 0.217 µM in the test with HCT-15; 0.439 µM (active) in the test on U-251; 21.4 µM (inactive) in the test on OVCAR-4; 0.207 µM (active) with SK-MEL-5; 0.275 µM (active) in the test on SK-MEL-28.
For `CC1(CO)OC(n2cc(C(=O)NC(=O)OCc3ccccc3)c(=O)[nH]c2=O)CC1O` (stereo not given), the GI50 in the test on IGROV-1, with LOX IMVI, in the test with MOLT-4, with CAKI-1, in the test on K562 and with ACHN was > 100 µM (inactive) each time. For the same compound, the GI50 is > 100 µM (inactive) in the test on NCI-H522; > 100 µM (inactive) in the test on NCI-H23; above 100 µM with HCT-15; > 100 µM (inactive) in the test with U-251; > 100 µM (inactive) with CCRF-CEM; > 100 µM (inactive) in the test on SK-MEL-5. In the test on SK-MEL-28, the GI50 was > 100 µM (inactive).
